Laboratory results: ChEMBL document CHEMBL1240407, “Prevalence, resistance mechanisms, and susceptibility of multidrug-resistant bloodstream isolates of Pseudomonas aeruginosa” (2010)
≈ marks a conversion by molar mass, not a printed value.

Key:
Assay type in all cases: functional
[1] = system: Pseudomonas aeruginosa; assay: Antimicrobial activity against MexB overexpressing Pseudomonas aeruginosa isolate PA1328 harboring gyrA T83I and parC S87L mutant gene by Etest method
[2] = system: Pseudomonas aeruginosa; assay: Antimicrobial activity against MexB overexpressing Pseudomonas aeruginosa isolate PA1165 harboring gyrA T83I and parC S87L mutant gene by Etest method
[3] = system: Pseudomonas aeruginosa; assay: Antimicrobial activity against Pseudomonas aeruginosa isolate PA8858 harboring gyrA T83I and parC S87L mutant gene by Etest method
[4] = system: Pseudomonas aeruginosa; assay: Antimicrobial activity against Pseudomonas aeruginosa isolate PA27853 by Etest method
[5] = system: Pseudomonas aeruginosa; assay: Antimicrobial activity against Pseudomonas aeruginosa isolate PA9019 harboring gyrA D87G and parC S87L mutant gene by Etest method
[6] = system: Pseudomonas aeruginosa; assay: Antimicrobial activity against Pseudomonas aeruginosa isolate PA5441 harboring gyrA T83I and parC S87L mutant gene by Etest method
[7] = system: Pseudomonas aeruginosa; assay: Antimicrobial activity against MexB overexpressing Pseudomonas aeruginosa isolate PA1378 harboring gyrA T83I mutant gene by Etest method
[8] = system: Pseudomonas aeruginosa; assay: Antimicrobial activity against Pseudomonas aeruginosa isolate PA8119 harboring gyrA T83I and parC S87L mutant gene by Etest method
[9] = system: Pseudomonas aeruginosa; assay: Antimicrobial activity against MexB overexpressing Pseudomonas aeruginosa isolate PA707 harboring gyrA T83I and parC S87L mutant gene by Etest method
[10] = system: Pseudomonas aeruginosa; assay: Antimicrobial activity against Pseudomonas aeruginosa isolate PA1166 harboring gyrA T83I and parC S87L mutant gene by Etest method
[11] = system: Pseudomonas aeruginosa; assay: Antimicrobial activity against Pseudomonas aeruginosa isolate PA641 parC P105T mutant gene by Etest method
[12] = system: Pseudomonas aeruginosa; assay: Antimicrobial activity against Pseudomonas aeruginosa isolate PA7461 harboring gyrA T83I and parC S87L mutant gene by Etest method
[13] = system: Pseudomonas aeruginosa; assay: Antimicrobial activity against MexB overexpressing Pseudomonas aeruginosa isolate PA9087 harboring gyrA T83I mutant gene by Etest method
[14] = system: Pseudomonas aeruginosa; assay: Antimicrobial activity against Pseudomonas aeruginosa isolate PA5513 harboring gyrA T83I and parC S87L mutant gene by Etest method
[15] = system: Pseudomonas aeruginosa; assay: Antimicrobial activity against MexB overexpressing Pseudomonas aeruginosa isolate PA8108 harboring gyrA T83I mutant gene by Etest method
[16] = system: Pseudomonas aeruginosa; assay: Antimicrobial activity against MexB overexpressing Pseudomonas aeruginosa isolate PA1327 harboring gyrA T83I and parC S87L mutant gene by Etest method
[17] = system: Pseudomonas aeruginosa; assay: Antimicrobial activity against MexB overexpressing Pseudomonas aeruginosa isolate PA6218 harboring gyrA D87N mutant gene by Etest method
[18] = system: Pseudomonas aeruginosa; assay: Antimicrobial activity against Pseudomonas aeruginosa isolate PA8721 harboring gyrA T83I and parC S87L mutant gene by Etest method
[19] = system: Pseudomonas aeruginosa; assay: Antimicrobial activity against Pseudomonas aeruginosa isolate PA5600 harboring gyrA T83I and parC S87L mutant gene by Etest method

| Molecule | MIC50 [1] | MIC50 [2] | MIC50 [3] | MIC50 [4] | MIC50 [6] | MIC50 [8] | MIC50 [10] | MIC50 [12] | MIC50 [13] | MIC50 [16] | MIC50 [19] | MIC50 [5] | MIC50 [7] | MIC50 [9] | MIC50 [11] | MIC50 [14] | MIC50 [15] | MIC50 [17] | MIC50 [18] | further results |
| --- | --- | --- | --- | --- | --- | --- | --- | --- | --- | --- | --- | --- | --- | --- | --- | --- | --- | --- | --- | --- |
| C[C@@H](O)[C@H]1C(=O)N2C(C(=O)O)=C(S[C@@H]3CN[C@H](CNS(N)(=O)=O)C3)[C@H](C)[C@H]12 [DORIPENEM] | 3 µg/mL (≈ 7.13 µM) | 12 µg/mL (≈ 28.5 µM) | 8 µg/mL (≈ 19 µM) | 0.19 µg/mL (≈ 0.452 µM) | 4 µg/mL (≈ 9.51 µM) | 16 µg/mL (≈ 38 µM) | 24 µg/mL (≈ 57.1 µM) | 12 µg/mL (≈ 28.5 µM) | 6 µg/mL (≈ 14.3 µM) | 8 µg/mL (≈ 19 µM) | 4 µg/mL (≈ 9.51 µM) |  |  |  |  |  |  |  |  | MIC90 [5]: > 32 µg/mL; MIC90 [7]: > 32 µg/mL; MIC90 [9]: > 32 µg/mL; MIC90 [11]: > 32 µg/mL; MIC90 [14]: > 32 µg/mL; MIC90 [15]: > 32 µg/mL; MIC90 [17]: > 32 µg/mL; MIC90 [18]: 32 µg/mL (≈ 76.1 µM) |
| COLISTIN | 1.5 µg/mL | 1.5 µg/mL | 1.5 µg/mL | 1.5 µg/mL | 1.5 µg/mL | 1.5 µg/mL | 1 µg/mL | 2 µg/mL | 0.38 µg/mL | 2 µg/mL | 1 µg/mL | 1.5 µg/mL | 2 µg/mL | 1 µg/mL | 1.5 µg/mL | 1 µg/mL | 0.25 µg/mL | 3 µg/mL | 1.5 µg/mL |  |
| POLYMYXIN B | 1.5 µg/mL | 1.5 µg/mL |  | 1.5 µg/mL | 1.5 µg/mL | 1.5 µg/mL | 0.75 µg/mL |  | 0.5 µg/mL | 1 µg/mL | 1.5 µg/mL | 1 µg/mL | 1.5 µg/mL | 0.75 µg/mL | 1 µg/mL | 1 µg/mL | 0.25 µg/mL | 1.5 µg/mL | 1.5 µg/mL |  |
